Measured values: US20110257168A1, “DERIVATIVES OF OXABISPIDINE AS NEURONAL NICOTINIC ACETYLCHOLINE RECEPTOR LIGANDS” (Targacept, Inc., priority 2008, published 2011)

Target: T1, Rat α4β2 (Rattus norvegicus, UniProt P09483+P12390)
T1 construct: Preparation of membranes from rat tissues; Rat cortices were obtained from Analytical Biological Services; tissue Analytical Biological Services, Incorporated (ABS, Wilmington, Del.); host or cells: rat cortex membranes (female Sprague-Dawley)
Experiment: Competition binding to rat α4β2 receptors in membrane preparations
Conditions: not given
Procedure: (§1) Preparation of membranes from rat tissues. Rat cortices were obtained from Analytical Biological Services, Incorporated (ABS, Wilmington, Del.). Tissues were dissected from female Sprague-Dawley rats, frozen and shipped on dry ice. Tissues were stored at −20° C. until needed for membrane preparation. Cortices from 10 rats were pooled and homogenized by Polytron (Kinematica GmbH, Switzerland) in 10 volumes (weight:volume) of ice-cold preparative buffer (KCl, 11 mM; KH2PO4, 6 mM; NaCl 137 mM; Na2HPO4 8 mM; HEPES (free acid), 20 mM; iodoacetamide, 5 mM; EDTA, 1.5 mM; 0.1 mM PMSF pH 7.4). The resulting homogenate was centrifuged at 40,000 g for 20 minutes at 4° C. and the resulting pellet was resuspended in 20 volumes of ice-cold water. After 60-minute incubation at 4° C., a new pellet was collected by centrifugation at 40,000 g for 20 minutes at 4° C. The final pellet was resuspended in preparative buffer and stored at −20° C. On the day of the assay, tissue was thawed, centrifuged at 40,000 g for 20 minutes and then resuspended in PBS (Dulbecco's Phosphate Buffered Saline, Life Technologies, pH 7.4) to a final concentration of 2-3 mg protein/mL. Protein concentrations were determined using the Pierce BCA Protein Assay kit (Pierce Biotechnology, Rockford, Ill.), with bovine serum albumin as the standard. Preparation of membranes from clonal cell lines. Cells were harvested in ice-cold PBS, pH 7.4, then homogenized with a polytron (Brinkmann Instruments, Westbury, N.Y.). Homogenates were centrifuged at 40,000 g for 20 minutes (4° C.). The pellet was resuspended in PBS and protein concentration determined using the Pierce BCA Protein Assay kit (Pierce Biotechnology, Rockford, Ill.).
(§2) Competition binding to receptors in membrane preparations. Binding to nicotinic receptors was assayed on membranes using standard methods adapted from published procedures (Lippiello and Fernandes, 1986; Davies et al., 1999). In brief, membranes were reconstituted from frozen stocks (approximately 0.2 mg protein) and incubated for 2 h on ice in […] assay buffer (PBS) in the presence of competitor compound (0.001 nM to […]) and radioligand. [^3H]-nicotine (L-(−)-[N-methyl-3H]-nicotine, 69.5 Ci/mmol, Perkin-Elmer Life Sciences) was used for human α4β2 binding studies. [^3H]-epibatidine (52 Ci/mmol, Perkin-Elmer Life Sciences) was used for binding studies at the other receptor subtypes. Incubation was terminated by rapid filtration on a multimanifold tissue harvester (Brandel, Gaithersburg, Md.) using GF/B filters presoaked in 0.33% polyethyleneimine (w/v) to reduce non-specific binding. Filters were washed 3 times and the radioactivity retained was determined by liquid scintillation counting.
Binding data analysis. Binding data were expressed as percent total control binding. Replicates for each point were averaged and plotted against the log of drug concentration. The IC50 (concentration of the compound that produces 50% inhibition of binding) was determined by least squares non-linear regression using GraphPad Prism software (GraphPAD, San Diego, Calif.). Ki was calculated using the Cheng-Prusoff equation (Cheng and Prusoff, 1973).

Structure (SMILES) | Ki [nM]
Fc1cc(F)cc(N2CC3CNCC(C2)O3)c1 [3-(3,5-difluorophenyl)-9-oxa-3,7-diazabicyclo[3.3.1]nonane] | 97
FCCOc1cc(N2CC3CNCC(C2)O3)cnc1Cl [3-(5-(2-fluoroethoxy)-6-chloropyridin-3-yl)-9-oxa-3,7-diazabicyclo[3.3.1]nonane] | 0.41
FCCCOc1cc(N2CC3CNCC(C2)O3)cnc1Cl [3-(5-(3-fluoropropoxy)-6-chloropyridin-3-yl)-9-oxa-3,7-diazabicyclo[3.3.1]nonane] | 0.73
FCCCCOc1cc(N2CC3CNCC(C2)O3)cnc1Cl [3-(5-(4-fluorobutoxy)-6-chloropyridin-3-yl)-9-oxa-3,7-diazabicyclo[3.3.1]nonane] | 0.35
Brc1cncc(N2CC3CNCC(C2)O3)c1 [3-(5-bromopyridin-3-yl)-9-oxa-3,7-diazabicydo[3.3.1]nonane] | 2.7
COc1cc(N2CC3CNCC(C2)O3)cnc1Cl [3-(5-methoxy-6-chloropyridin-3-yl)-9-oxa-3,7-diazabicyclo[3.3.1]nonane] | 1
CN1CC2CN(c3cnc(Cl)c(Cl)c3)CC(C1)O2 [3-methyl-7-(5,6-dichloropyridin-3-yl)-9-oxa-3,7-diazabicyclo[3.3.1]nonane] | 33

Same assay, conditions: membranes, [3H]-epibatidine competition; Ki by Cheng-Prusoff; read-out: Rat α4β2 Ki

Structure (SMILES) | Ki [nM]
CN1CC2CN(c3cc(F)cc(F)c3)CC(C1)O2 [3-(3,5-difluorophenyl)-7-methyl-9-oxa-3,7-diazabicyclo[3.3.1]nonane] | 510
COc1cccc(N2CC3CNCC(C2)O3)c1 [3-(3-methoxyphenyl)-9-oxa-3,7-diazabicyclo[3.3.1]nonane] | 110
COc1ccncc1N1CC2CNCC(C1)O2 [3-(4-methoxypyridin-3-yl)-9-oxa-3,7-diazabicyclo[3.3.1]nonane] | 580
CN1CC2CN(c3cncc(Oc4ccccc4Cl)c3)CC(C1)O2 [3-(5-(2-chlorophenoxy)pyridin-3-yl)-7-methyl-9-oxa-3,7-diazabicyclo[3.3.1]nonane] | 1200
Clc1ccccc1Oc1cncc(N2CC3CNCC(C2)O3)c1 [3-(5-(2-chlorophenoxy)pyridin-3-yl)-9-oxa-3,7-diazabicyclo[3.3.1]nonane] | 14
CN1CC2CN(c3cncc(Oc4ccc(Cl)c(Cl)c4)c3)CC(C1)O2 [3-(5-(3,4-dichlorophenoxy)pyridin-3-yl)-7-methyl-9-oxa-3,7-diazabicyclo[3.3.1]nonane] | 400
CN1CC2CN(c3cncc(Cl)c3)CC(C1)O2 [3-(5-chloropyridin-3-yl)-7-methyl-9-oxa-3,7-diazabicyclo[3.3.1]nonane] | 1600
CN1CC2CN(c3ccc(Cl)nc3)CC(C1)O2 [3-(6-chloropyridin-3-yl)-7-methyl-9-oxa-3,7-diazabicyclo[3.3.1]nonane] | 1800
CN1CC2CN(c3ccc(F)nc3)CC(C1)O2 [3-(6-fluoropyridin-3-yl)-7-methyl-9-oxa-3,7-diazabicyclo[3.3.1]nonane] | 1100
Cc1ccc(N2CC3CN(C)CC(C2)O3)cn1 [3-(6-methylpyridin-3-yl)-7-methyl-9-oxa-3,7-diazabicyclo[3.3.1]nonane] | 1700
c1ccc(N2CC3CNCC(C2)O3)nc1 [3-(pyridin-2-yl)-9-oxa-3,7-diazabicyclo[3.3.1]nonane] | 350

Target: human α4β2 (Homo sapiens, UniProt P17787+P43681)
Experiment: Competition binding to human α4β2 receptors in membrane preparations
Conditions: not given
Procedure: (§3) SH-EP1/human α4β2 (Eaton et al., 2003), SH-EP1/human α4β4 (Gentry et al., 2003), SH-EP1/α6β3β4α5 (Grinevich et al., 2005), TE671/RD and SH-SY5Y cell lines (obtained from Dr. Ron Lukas, Barrow Neurological Institute) were maintained in proliferative growth phase in Dulbecco's modified Eagle's medium (Gibco/BRL) with 10% horse serum (Gibco BRL), 5% fetal bovine serum (HyClone, Logan Utah), 1 mM sodium pyruvate, 4 mM L-glutamine. For maintenance of stable transfectants, the α4β2 and α4β4 cell media was supplemented with 0.25 mg/mL zeocin and 0.13 mg/mL hygromycin B. Selection was maintained for the α6β3β4α5 cells with 0.25 mg/mL of zeocin, 0.13 mg/mL of hygromycin B, 0.4 mg/mL of geneticin, and 0.2 mg/mL of blasticidin. HEK/human α7/RIC3 cells (obtained from J. Lindstrom, U. Pennsylvania) were maintained in proliferative growth phase in Dulbecco's modified Eagle's medium (Gibco/BRL) with 10% fetal bovine serum (HyClone, Logan Utah), 1 mM sodium pyruvate, 4 mM L-glutamine, 0.4 mg/mL geneticin; 0.2 mg/ml hygromycin B.
as §1, §2
(§4) Binding data analysis. Binding data were expressed as percent total control binding. Replicates for each point were averaged and plotted against the log of drug concentration. […]

Structure (SMILES) | Ki [nM]
Clc1ccccc1Oc1cncc(N2CC3CNCC(C2)O3)c1 [3-(5-(2-chlorophenoxy)pyridin-3-yl)-9-oxa-3,7-diazabicyclo[3.3.1]nonane] | 3.6

Same assay, conditions: membranes, [3H]-nicotine competition; Ki by Cheng-Prusoff; read-out: human α4β2 Ki

Structure (SMILES) | Ki [nM]
CN1CC2CN(c3cccc(Cl)c3Cl)CC(C1)O2 | 5200
FC1(F)Oc2ccc(N3CC4CNCC(C3)O4)cc2O1 [3-(2,2-difluorobenzo[d][1,3]dioxol-5-yl)-9-oxa-3,7-diazabicyclo[3.3.1]nonane] | 700
Clc1cccc(N2CC3CNCC(C2)O3)c1Cl [3-(2,3-dichlorophenyl)-9-oxa-3,7-diazabicyclo[3.3.1]nonane] | 9600
Fc1cccc(N2CC3CNCC(C2)O3)c1F [3-(2,3-difluorophenyl)-9-oxa-3,7-diazabicyclo[3.3.1]nonane] | 260
CN1CC2CN(c3cnc(Br)nc3)CC(C1)O2 [3-(2-bromopyrimidin-5-yl)-7-methyl-9-oxa-3,7-diazabicyclo[3.3.1]nonane] | 2000
CN1CC2CN(c3cc(F)cc(F)c3)CC(C1)O2 [3-(3,5-difluorophenyl)-7-methyl-9-oxa-3,7-diazabicyclo[3.3.1]nonane] | 86
Fc1cc(F)cc(N2CC3CNCC(C2)O3)c1 [3-(3,5-difluorophenyl)-9-oxa-3,7-diazabicyclo[3.3.1]nonane] | 27
COc1cccc(N2CC3CN(C)CC(C2)O3)c1 [3-(3-methoxyphenyl)-7-methyl-9-oxa-3,7-diazabicyclo[3.3.1]nonane] | 1600
COc1cccc(N2CC3CNCC(C2)O3)c1 [3-(3-methoxyphenyl)-9-oxa-3,7-diazabicyclo[3.3.1]nonane] | 33
CN1CC2CN(c3cnccc3Cl)CC(C1)O2 [3-(4-chloropyridin-3-yl)-7-methyl-9-oxa-3,7-diazabicyclo[3.3.1]nonane] | 180
Clc1ccncc1N1CC2CNCC(C1)O2 [3-(4-chloropyridin-3-yl)-9-oxa-3,7-diazabicydo[3.3.1]nonane] | 250
N#Cc1ccncc1N1CC2CNCC(C1)O2 [3-(4-cyanopyridin-3-yl)-9-oxa-3,7-diazabicyclo[3.3.1]nonane] | 860
COc1ccncc1N1CC2CNCC(C1)O2 [3-(4-methoxypyridin-3-yl)-9-oxa-3,7-diazabicyclo[3.3.1]nonane] | 120
CN1CC2CN(c3cncc(Oc4ccccc4Cl)c3)CC(C1)O2 [3-(5-(2-chlorophenoxy)pyridin-3-yl)-7-methyl-9-oxa-3,7-diazabicyclo[3.3.1]nonane] | 84
FCCOc1cc(N2CC3CNCC(C2)O3)cnc1Cl [3-(5-(2-fluoroethoxy)-6-chloropyridin-3-yl)-9-oxa-3,7-diazabicyclo[3.3.1]nonane] | 0.21
CN1CC2CN(c3cncc(Oc4ccc(Cl)c(Cl)c4)c3)CC(C1)O2 [3-(5-(3,4-dichlorophenoxy)pyridin-3-yl)-7-methyl-9-oxa-3,7-diazabicyclo[3.3.1]nonane] | 62
FCCCOc1cc(N2CC3CNCC(C2)O3)cnc1Cl [3-(5-(3-fluoropropoxy)-6-chloropyridin-3-yl)-9-oxa-3,7-diazabicyclo[3.3.1]nonane] | 0.38

Structure (SMILES) | Ki [nM]
FCCCCOc1cc(N2CC3CNCC(C2)O3)cnc1Cl [3-(5-(4-fluorobutoxy)-6-chloropyridin-3-yl)-9-oxa-3,7-diazabicyclo[3.3.1]nonane] | 0.3
Brc1cncc(N2CC3CNCC(C2)O3)c1 [3-(5-bromopyridin-3-yl)-9-oxa-3,7-diazabicydo[3.3.1]nonane] | 2.1
CN1CC2CN(c3cncc(Cl)c3)CC(C1)O2 [3-(5-chloropyridin-3-yl)-7-methyl-9-oxa-3,7-diazabicyclo[3.3.1]nonane] | 77
CN1CC2CN(c3cncc(C#N)c3)CC(C1)O2 [3-(5-cyanopyridin-3-yl)-7-methyl-9-oxa-3,7-diazabicyclo[3.3.1]nonane] | 260
[O-][n+]1cc(F)cc(N2CC3CNCC(C2)O3)c1 [3-(5-fluoro-pyridine-1-oxide-3-yl)-9-oxa-3,7-diazabicyclo[3.3.1]nonane] | 590
COc1cc(N2CC3CNCC(C2)O3)cnc1Cl [3-(5-methoxy-6-chloropyridin-3-yl)-9-oxa-3,7-diazabicyclo[3.3.1]nonane] | 0.4
CN1CC2CN(c3ccc(Cl)nn3)CC(C1)O2 [3-(6-chloropyridazin-3-yl)-7-methyl-9-oxa-3,7-diazabicyclo[3.3.1]nonane] | 29000
CN1CC2CN(c3ccc(Cl)nc3)CC(C1)O2 [3-(6-chloropyridin-3-yl)-7-methyl-9-oxa-3,7-diazabicyclo[3.3.1]nonane] | 120
CN(C)c1ccc(N2CC3CNCC(C2)O3)cn1 [3-(6-dimethylaminopyridin-3-yl)-9-oxa-3,7-diazabicyclo[3.3.1]nonane] | 1200
CN1CC2CN(c3ccc(F)nc3)CC(C1)O2 [3-(6-fluoropyridin-3-yl)-7-methyl-9-oxa-3,7-diazabicyclo[3.3.1]nonane] | 140
COc1ccc(N2CC3CNCC(C2)O3)cn1 [3-(6-methoxypyridin-3-yl)-9-oxa-3,7-diazabicyclo[3.3.1]nonane] | 200
Cc1ccc(N2CC3CN(C)CC(C2)O3)cn1 [3-(6-methylpyridin-3-yl)-7-methyl-9-oxa-3,7-diazabicyclo[3.3.1]nonane] | 150
c1ccc(-c2ccc(N3CC4CNCC(C3)O4)nn2)cc1 [3-(6-phenylpyridazin-3-yl)-9-oxa-3,7-diazabicyclo[3.3.1]nonane] | 380
CN1CC2CN(c3ccc(C(F)(F)F)nc3)CC(C1)O2 [3-(6-trifluoromethyl-pyridin-3-yl)-7-methyl-9-oxa-3,7-diazabicyclo[3.3.1]nonane] | 1000
c1ccc(N2CC3CNCC(C2)O3)nc1 [3-(pyridin-2-yl)-9-oxa-3,7-diazabicyclo[3.3.1]nonane] | 100
CN1CC2CN(c3cncnc3)CC(C1)O2 [3-(pyrimidin-5-yl)-7-methyl-9-oxa-3,7-diazabicyclo[3.3.1]nonane] | 270
CN1CC2CN(c3cnc(Cl)c(Cl)c3)CC(C1)O2 [3-methyl-7-(5,6-dichloropyridin-3-yl)-9-oxa-3,7-diazabicyclo[3.3.1]nonane] | 24

Target: T2, Human α7 (Homo sapiens, UniProt P36544)
T2 construct: host or cells: HEK cells co-expressing RIC3
Experiment: Competition binding to human α7 receptors in membrane preparations
Conditions: membranes, [3H]-epibatidine competition; Ki by Cheng-Prusoff; read-out: Human α7 Ki
Procedure: as §3, §1, §2, §4

Structure (SMILES) | Ki [nM]
FC1(F)Oc2ccc(N3CC4CNCC(C3)O4)cc2O1 [3-(2,2-difluorobenzo[d][1,3]dioxol-5-yl)-9-oxa-3,7-diazabicyclo[3.3.1]nonane] | 90000
COc1cccc(N2CC3CNCC(C2)O3)c1 [3-(3-methoxyphenyl)-9-oxa-3,7-diazabicyclo[3.3.1]nonane] | 800
Clc1ccccc1Oc1cncc(N2CC3CNCC(C2)O3)c1 [3-(5-(2-chlorophenoxy)pyridin-3-yl)-9-oxa-3,7-diazabicyclo[3.3.1]nonane] | 430
FCCOc1cc(N2CC3CNCC(C2)O3)cnc1Cl [3-(5-(2-fluoroethoxy)-6-chloropyridin-3-yl)-9-oxa-3,7-diazabicyclo[3.3.1]nonane] | 1600
FCCCOc1cc(N2CC3CNCC(C2)O3)cnc1Cl [3-(5-(3-fluoropropoxy)-6-chloropyridin-3-yl)-9-oxa-3,7-diazabicyclo[3.3.1]nonane] | 1900
FCCCCOc1cc(N2CC3CNCC(C2)O3)cnc1Cl [3-(5-(4-fluorobutoxy)-6-chloropyridin-3-yl)-9-oxa-3,7-diazabicyclo[3.3.1]nonane] | 1500
[O-][n+]1cc(F)cc(N2CC3CNCC(C2)O3)c1 [3-(5-fluoro-pyridine-1-oxide-3-yl)-9-oxa-3,7-diazabicyclo[3.3.1]nonane] | 54000
